Data as given in publication PMC3098952 (Bioorganic & medicinal chemistry letters, 2011).

Experiments:
AbMetAPy = AbMetAPy (Acinetobacter baumannii, UniProt V5VCW7); assay: Activation of and metal binding to AbMetAPy by divalent metal ions; type: biochemical, Acinetobacter baumannii ATCC 17978; conditions: Met-AMC fluorescence assay, enzyme 1 µM
AbMetAPx = AbMetAPx (Acinetobacter baumannii, UniProt A0A7U4DGZ4); assay: Activation of and metal binding to AbMetAPx by divalent metal ions; type: biochemical, Acinetobacter baumannii ATCC 17978; conditions: Met-AMC fluorescence assay, enzyme 1 µM
EcMetAP = conditions: read-out: Reported affinity of metal for EcMetAP; ref [30], [31]; cited from earlier work

| Compound | Activation of AbMetAPy by metal ion (AbMetAPy) | Activation of AbMetAPx by metal ion (AbMetAPx) | Kd (EcMetAP) |
| --- | --- | --- | --- |
| [Zn+2] [Zn (II)] | no activation | no activation | – |
| [Co+2] [Co(II)] | – | – | 0.3 µM |
| [Mn+2] [Mn(II)] | – | – | 6 µM |
| [Fe+2] [Fe(II)] | – | – | 0.2 µM |
